In BigSolDB 2.1:

O=c1[nH]c2ccccc2c(=O)o1
solubility (mole fraction) (in 1,4-dioxane, 288.15 K): 0.00839
solubility (mole fraction) (in 1,4-dioxane, 293.15 K): 0.00944
solubility (mole fraction) (in 1,4-dioxane, 298.15 K): 0.0107
solubility (mole fraction) (in 1,4-dioxane, 303.15 K): 0.0119
solubility (mole fraction) (in 1,4-dioxane, 308.15 K): 0.0133
solubility (mole fraction) (in 1,4-dioxane, 313.15 K): 0.0146
solubility (mole fraction) (in 1,4-dioxane, 323.15 K): 0.0179
solubility (mole fraction) (in 1,4-dioxane, 328.15 K): 0.0198
solubility (mole fraction) (in 2-butanone, 288.15 K): 0.00741
solubility (mole fraction) (in 2-butanone, 293.15 K): 0.00805
solubility (mole fraction) (in 2-butanone, 298.15 K): 0.00877
solubility (mole fraction) (in 2-butanone, 303.15 K): 0.00964
solubility (mole fraction) (in 2-butanone, 308.15 K): 0.0107
solubility (mole fraction) (in 2-butanone, 313.15 K): 0.0117
solubility (mole fraction) (in 2-butanone, 318.15 K): 0.0129
solubility (mole fraction) (in 2-butanone, 323.15 K): 0.014
solubility (mole fraction) (in 2-butanone, 328.15 K): 0.0153
solubility (mole fraction) (in acetone, 288.15 K): 0.00794
solubility (mole fraction) (in acetone, 293.15 K): 0.00873
solubility (mole fraction) (in acetone, 298.15 K): 0.00965
solubility (mole fraction) (in acetone, 303.15 K): 0.0109
solubility (mole fraction) (in acetone, 308.15 K): 0.0122
solubility (mole fraction) (in acetone, 313.15 K): 0.0135
solubility (mole fraction) (in acetone, 318.15 K): 0.0149
solubility (mole fraction) (in acetone, 323.15 K): 0.0165
solubility (mole fraction) (in acetone, 328.15 K): 0.0184
solubility (mole fraction) (in acetonitrile, 288.15 K): 0.003
solubility (mole fraction) (in acetonitrile, 293.15 K): 0.0033
solubility (mole fraction) (in acetonitrile, 298.15 K): 0.00374
solubility (mole fraction) (in acetonitrile, 303.15 K): 0.0043
solubility (mole fraction) (in acetonitrile, 308.15 K): 0.00485
solubility (mole fraction) (in acetonitrile, 313.15 K): 0.00553
solubility (mole fraction) (in acetonitrile, 318.15 K): 0.00624
solubility (mole fraction) (in acetonitrile, 323.15 K): 0.00712
solubility (mole fraction) (in acetonitrile, 328.15 K): 0.00797
solubility (mole fraction) (in ethanol, 288.15 K): 0.00134
solubility (mole fraction) (in ethanol, 293.15 K): 0.0015
solubility (mole fraction) (in ethanol, 298.15 K): 0.00175
solubility (mole fraction) (in ethanol, 303.15 K): 0.00201
solubility (mole fraction) (in ethanol, 308.15 K): 0.00239
solubility (mole fraction) (in ethanol, 313.15 K): 0.00277
solubility (mole fraction) (in ethanol, 318.15 K): 0.00328
solubility (mole fraction) (in ethanol, 323.15 K): 0.00381
solubility (mole fraction) (in ethanol, 328.15 K): 0.00439
solubility (mole fraction) (in ethyl acetate, 288.15 K): 0.0032
solubility (mole fraction) (in ethyl acetate, 293.15 K): 0.00352
solubility (mole fraction) (in ethyl acetate, 298.15 K): 0.00389
solubility (mole fraction) (in ethyl acetate, 303.15 K): 0.00434
solubility (mole fraction) (in ethyl acetate, 308.15 K): 0.00482
solubility (mole fraction) (in ethyl acetate, 313.15 K): 0.00533
solubility (mole fraction) (in ethyl acetate, 318.15 K): 0.00582
solubility (mole fraction) (in ethyl acetate, 323.15 K): 0.00636
solubility (mole fraction) (in ethyl acetate, 328.15 K): 0.00694
solubility (mole fraction) (in isopropanol, 288.15 K): 0.00104
solubility (mole fraction) (in isopropanol, 293.15 K): 0.00121
solubility (mole fraction) (in isopropanol, 298.15 K): 0.00144
solubility (mole fraction) (in isopropanol, 303.15 K): 0.00176
solubility (mole fraction) (in isopropanol, 308.15 K): 0.00216
solubility (mole fraction) (in isopropanol, 313.15 K): 0.00265
solubility (mole fraction) (in isopropanol, 318.15 K): 0.00316
solubility (mole fraction) (in isopropanol, 323.15 K): 0.0038
solubility (mole fraction) (in isopropanol, 328.15 K): 0.00457
solubility (mole fraction) (in isopropyl acetate, 288.15 K): 0.00185
solubility (mole fraction) (in isopropyl acetate, 293.15 K): 0.00206
solubility (mole fraction) (in isopropyl acetate, 298.15 K): 0.00234
solubility (mole fraction) (in isopropyl acetate, 303.15 K): 0.00256
solubility (mole fraction) (in isopropyl acetate, 308.15 K): 0.00291
solubility (mole fraction) (in isopropyl acetate, 313.15 K): 0.00325
solubility (mole fraction) (in isopropyl acetate, 318.15 K): 0.0036
solubility (mole fraction) (in isopropyl acetate, 323.15 K): 0.00396
solubility (mole fraction) (in isopropyl acetate, 328.15 K): 0.00434
solubility (mole fraction) (in methanol, 288.15 K): 0.00149
solubility (mole fraction) (in methanol, 293.15 K): 0.00173
solubility (mole fraction) (in methanol, 298.15 K): 0.00204
solubility (mole fraction) (in methanol, 303.15 K): 0.00243
solubility (mole fraction) (in methanol, 308.15 K): 0.00295
solubility (mole fraction) (in methanol, 313.15 K): 0.00354
solubility (mole fraction) (in methanol, 318.15 K): 0.00425
solubility (mole fraction) (in methanol, 323.15 K): 0.00507
solubility (mole fraction) (in methanol, 328.15 K): 0.00606
solubility (mole fraction) (in methyl acetate, 288.15 K): 0.00415
solubility (mole fraction) (in methyl acetate, 293.15 K): 0.00464
solubility (mole fraction) (in methyl acetate, 298.15 K): 0.00517
solubility (mole fraction) (in methyl acetate, 303.15 K): 0.00573
solubility (mole fraction) (in methyl acetate, 308.15 K): 0.00634
solubility (mole fraction) (in methyl acetate, 313.15 K): 0.00699
solubility (mole fraction) (in methyl acetate, 318.15 K): 0.00768
solubility (mole fraction) (in methyl acetate, 323.15 K): 0.00844
solubility (mole fraction) (in methyl acetate, 328.15 K): 0.00937
solubility (mole fraction) (in n-propanol, 288.15 K): 0.00116
solubility (mole fraction) (in n-propanol, 293.15 K): 0.00133
solubility (mole fraction) (in n-propanol, 298.15 K): 0.00152
solubility (mole fraction) (in n-propanol, 303.15 K): 0.00181
solubility (mole fraction) (in n-propanol, 308.15 K): 0.00208
solubility (mole fraction) (in n-propanol, 313.15 K): 0.0025
solubility (mole fraction) (in n-propanol, 318.15 K): 0.00291
solubility (mole fraction) (in n-propanol, 323.15 K): 0.00341
solubility (mole fraction) (in n-propanol, 328.15 K): 0.00394
solubility (mole fraction) (in n-propyl acetate, 288.15 K): 0.00229
solubility (mole fraction) (in n-propyl acetate, 293.15 K): 0.00255
solubility (mole fraction) (in n-propyl acetate, 298.15 K): 0.00285
solubility (mole fraction) (in n-propyl acetate, 303.15 K): 0.00318
solubility (mole fraction) (in n-propyl acetate, 308.15 K): 0.00351
solubility (mole fraction) (in n-propyl acetate, 313.15 K): 0.00394
solubility (mole fraction) (in n-propyl acetate, 318.15 K): 0.00434
solubility (mole fraction) (in n-propyl acetate, 323.15 K): 0.00477
solubility (mole fraction) (in n-propyl acetate, 328.15 K): 0.00534
